The compounds below were run against T1, Nav1.7 (or SCN9A) channel (Homo sapiens, UniProt Q15858) (assay: Nav1.7 PatchXpress 7000 automated electrophysiology assay (HEK cells stably expressing hSCN9A)). Conditions: voltage-clamped at V1/2 of inactivation, read-out: Nav1.7 EIC50.
T1 construct: expressed in transfected cells
Type: cell-based
Method in brief: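 Automated whole-cell clamp (PatchXpress) of HEK cells stably expressing hSCN9A, at 22-24 °C, in extracellular buffer at pH 7.4. Cells were held at the measured V1/2 of inactivation, then stepped to 0 mV for 20 ms. Single-concentration % inhibition gave EIC50 = concentration × (100 − %inhibition)/%inhibition, excluding <20% or >80%.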

T1 sequence (Q15858 whole entry): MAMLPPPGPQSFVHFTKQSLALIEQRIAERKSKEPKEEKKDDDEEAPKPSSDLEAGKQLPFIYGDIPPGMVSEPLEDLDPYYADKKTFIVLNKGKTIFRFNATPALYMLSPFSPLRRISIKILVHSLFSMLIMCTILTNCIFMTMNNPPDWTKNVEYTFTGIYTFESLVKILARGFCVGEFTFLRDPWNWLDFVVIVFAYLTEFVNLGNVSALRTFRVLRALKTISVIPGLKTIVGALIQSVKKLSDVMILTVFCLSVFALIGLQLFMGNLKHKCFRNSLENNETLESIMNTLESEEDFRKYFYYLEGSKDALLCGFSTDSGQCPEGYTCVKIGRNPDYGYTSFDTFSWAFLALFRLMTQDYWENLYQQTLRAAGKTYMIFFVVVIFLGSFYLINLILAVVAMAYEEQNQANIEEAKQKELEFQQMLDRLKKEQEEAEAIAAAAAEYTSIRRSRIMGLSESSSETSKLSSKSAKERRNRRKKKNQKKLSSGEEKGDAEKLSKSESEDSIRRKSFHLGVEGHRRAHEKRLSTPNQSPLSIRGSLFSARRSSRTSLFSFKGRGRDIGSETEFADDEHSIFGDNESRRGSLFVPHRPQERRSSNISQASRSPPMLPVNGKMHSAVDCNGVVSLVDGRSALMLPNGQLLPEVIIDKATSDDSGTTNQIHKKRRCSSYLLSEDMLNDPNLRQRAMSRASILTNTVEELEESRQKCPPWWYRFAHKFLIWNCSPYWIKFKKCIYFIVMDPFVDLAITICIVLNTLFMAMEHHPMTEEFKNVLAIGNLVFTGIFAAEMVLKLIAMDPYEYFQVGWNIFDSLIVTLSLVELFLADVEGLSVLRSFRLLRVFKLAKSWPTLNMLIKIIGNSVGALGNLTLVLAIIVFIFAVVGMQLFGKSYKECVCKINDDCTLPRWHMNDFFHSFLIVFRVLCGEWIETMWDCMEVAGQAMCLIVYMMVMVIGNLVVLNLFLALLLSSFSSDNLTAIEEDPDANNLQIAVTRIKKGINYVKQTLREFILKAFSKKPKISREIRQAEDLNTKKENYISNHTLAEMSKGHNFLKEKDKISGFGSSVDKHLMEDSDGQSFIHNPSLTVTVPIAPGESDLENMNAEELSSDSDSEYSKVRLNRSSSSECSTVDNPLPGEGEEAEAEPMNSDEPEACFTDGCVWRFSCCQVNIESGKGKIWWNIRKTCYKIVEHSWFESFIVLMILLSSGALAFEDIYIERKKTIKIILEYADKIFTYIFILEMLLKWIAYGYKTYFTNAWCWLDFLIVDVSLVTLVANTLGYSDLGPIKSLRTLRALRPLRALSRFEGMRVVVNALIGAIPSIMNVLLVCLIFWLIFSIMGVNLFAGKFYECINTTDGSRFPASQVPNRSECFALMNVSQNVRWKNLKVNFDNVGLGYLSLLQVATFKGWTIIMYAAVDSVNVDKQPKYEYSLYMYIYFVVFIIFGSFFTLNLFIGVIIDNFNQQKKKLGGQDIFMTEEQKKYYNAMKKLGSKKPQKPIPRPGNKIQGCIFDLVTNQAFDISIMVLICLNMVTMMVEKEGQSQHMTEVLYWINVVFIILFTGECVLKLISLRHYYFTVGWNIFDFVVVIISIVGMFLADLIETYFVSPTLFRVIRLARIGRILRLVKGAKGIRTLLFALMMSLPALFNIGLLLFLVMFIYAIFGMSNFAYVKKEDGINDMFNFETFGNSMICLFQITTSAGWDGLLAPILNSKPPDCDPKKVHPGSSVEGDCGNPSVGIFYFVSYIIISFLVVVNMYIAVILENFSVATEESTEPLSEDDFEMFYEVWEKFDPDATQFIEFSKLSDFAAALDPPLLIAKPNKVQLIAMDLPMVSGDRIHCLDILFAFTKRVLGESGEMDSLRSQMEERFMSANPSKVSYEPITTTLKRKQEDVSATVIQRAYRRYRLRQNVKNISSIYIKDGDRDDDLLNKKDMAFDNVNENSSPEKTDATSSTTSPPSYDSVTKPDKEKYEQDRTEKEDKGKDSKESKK

Row | IC50 [µM] | SMILES
1 | 7.6 | Cc1cc(Oc2ccc(C(=O)NS(C)(=O)=O)cc2)ccc1F [Example 199, 4-(4-fluoro-3-methylphenoxy)-N-(methylsulfonyl)benzamide]
2 | 8.1 | CS(=O)(=O)NC(=O)c1ccc(Oc2ccc(F)c(Cl)c2)cc1 [Example 200, 4-(3-chloro-4-fluorophenoxy)-N-(methylsulfonyl)benzamide]
3 | 20 | Cc1cc(F)ccc1Oc1ccc(C(=O)NS(C)(=O)=O)cc1 [Example 201, 4-(4-fluoro-2-methylphenoxy)-N-(methylsulfonyl)benzamide]
4 | 6.9 | CS(=O)(=O)NC(=O)c1ccc(Oc2cccc(Cl)c2)cc1 [Example 202, 4-(3-chlorophenoxy)-N-(methylsulfonyl)benzamide]
5 | 25 | Cc1ccc(Oc2ccc(C(=O)NS(C)(=O)=O)cc2)c(Cl)c1 [Example 203, 4-(2-chloro-4-methylphenoxy)-N-(methylsulfonyl)benzamide]
6 | 21 | COc1cc(C)cc(Oc2ccc(C(=O)NS(C)(=O)=O)cc2)c1 [Example 204, 4-(3-methoxy-5-methylphenoxy)-N-(methylsulfonyl)benzamide]
7 | 15 | Cc1ccc(F)c(Oc2ccc(C(=O)NS(C)(=O)=O)cc2)c1 [Example 205, 4-(2-fluoro-5-methylphenoxy)-N-(methylsulfonyl)benzamide]
8 | 18 | Cc1cc(Cl)ccc1Oc1ccc(C(=O)NS(C)(=O)=O)cc1 [Example 206, 4-(4-chloro-2-methylphenoxy)-N-(methylsulfonyl)benzamide]
9 | > 3 | COc1cc(Oc2cccc(Cl)c2)ccc1C(=O)NS(C)(=O)=O [Example 213, 4-(3-chlorophenoxy)-2-methoxy-N-(methylsulfonyl)benzamide]
10 | 0.22 | CS(=O)(=O)NC(=O)c1ccc(Oc2ccc(Cl)cc2)c(Cl)c1 [Example 214, 3-chloro-4-(4-chlorophenoxy)-N-(methylsulfonyl)benzamide]
11 | 1.3 | Cc1ccc(Oc2ccc(C(=O)NS(C)(=O)=O)cc2Cl)cc1 [Example 215, 3-chloro-4-(4-methylphenoxy)-N-(methylsulfonyl)benzamide]
12 | 11 | COc1cc(Oc2ccc(F)c(C)c2)ccc1C(=O)NS(C)(=O)=O [Example 216, 4-(4-fluoro-3-methylphenoxy)-2-methoxy-N-(methylsulfonyl)benzamide]
13 | 4.2 | Cc1ccc(Oc2ccc(C(=O)NS(C)(=O)=O)cc2F)cc1 [Example 217, 3-fluoro-4-(4-methylphenoxy)-N-(methylsulfonyl)benzamide]
14 | 2.8 | Cc1cc(Oc2ccc(C(=O)NS(C)(=O)=O)cc2F)ccc1F [Example 218, 3-fluoro-4-(4-fluoro-3-methylphenoxy)-N-(methylsulfonyl)benzamide]
15 | 1.8 | CS(=O)(=O)NC(=O)c1ccc(Oc2ccc(Cl)c(F)c2)cc1 [Example 220, 4-(4-chloro-3-fluorophenoxy)-N-(methylsulfonyl)benzamide]
16 | 2.4 | CS(=O)(=O)NC(=O)c1ccc(Oc2cccc(Cl)c2)c(F)c1 [Example 223, 4-(3-chlorophenoxy)-3-fluoro-N-(methylsulfonyl)benzamide]
17 | 3.3 | COc1c(C(=O)NS(C)(=O)=O)ccc(Oc2cccc(Cl)c2)c1F [Example 225, 4-(3-chlorophenoxy)-3-fluoro-2-methoxy-N-(methylsulfonyl)benzamide]
18 | 5.4 | COc1cc(Oc2ccc(Cl)c(F)c2)ccc1C(=O)NS(C)(=O)=O [Example 228, 4-(4-chloro-3-fluorophenoxy)-2-methoxy-N-(methylsulfonyl)benzamide]
19 | 1.2 | CS(=O)(=O)NC(=O)c1ccc(Oc2ccc(Cl)cc2)c(F)c1 [Example 229, 4-(4-chlorophenoxy)-3-fluoro-N-(methylsulfonyl)benzamide]
20 | 0.86 | COc1c(C(=O)NS(C)(=O)=O)ccc(Oc2ccc(Cl)c(C)c2)c1F [Example 230, 4-(4-chloro-3-methylphenoxy)-3-fluoro-2-methoxy-N-(methylsulfonyl)benzamide]
21 | 3.9 | COc1cc(Oc2ccc(Cl)c(C)c2)ccc1C(=O)NS(C)(=O)=O [Example 231, 4-(4-chloro-3-methylphenoxy)-2-methoxy-N-(methylsulfonyl)benzamide]
22 | 8.2 | COc1cc(Oc2ccc(F)c(Cl)c2)ccc1C(=O)NS(C)(=O)=O [Example 233, 4-(3-chloro-4-fluorophenoxy)-2-methoxy-N-(methylsulfonyl)benzamide]
23 | 0.85 | COc1c(C(=O)NS(C)(=O)=O)ccc(Oc2ccc(Cl)c(Cl)c2)c1F [Example 234, 4-(3,4-dichlorophenoxy)-3-fluoro-2-methoxy-N-(methylsulfonyl)benzamide]
24 | 2.5 | Cc1cc(C(=O)NS(C)(=O)=O)ccc1Oc1ccc(F)cc1 [Example 237, 4-(4-fluorophenoxy)-3-methyl-N-(methylsulfonyl)benzamide]
25 | 0.96 | Cc1cc(C(=O)NS(C)(=O)=O)ccc1Oc1cccc(Cl)c1 [Example 238, 4-(3-chlorophenoxy)-3-methyl-N-(methylsulfonyl)benzamide]

Row | IC50 [µM] | SMILES
26 | 0.63 | Cc1cc(C(=O)NS(C)(=O)=O)ccc1Oc1ccc(Cl)cc1 [Example 240, 4-(4-chlorophenoxy)-3-methyl-N-(methylsulfonyl)benzamide]
27 | 1.3 | CS(=O)(=O)NC(=O)c1ccc(Oc2ccc(-c3ccccc3)cc2)cc1 [Example 245, 4-(biphenyl-4-yloxy)-N-(methylsulfonyl)benzamide]
28 | 0.49 | CS(=O)(=O)NC(=O)c1ccc(Oc2ccc3ccccc3c2)c(Cl)c1 [Example 246, 3-chloro-N-(methylsulfonyl)-4-(2-naphthyloxy)benzamide]
29 | 1.7 | CS(=O)(=O)NC(=O)c1ccc(Oc2ccccc2Cl)c(Cl)c1 [Example 248, 3-chloro-4-(2-chlorophenoxy)-N-(methylsulfonyl)benzamide]
30 | 1.4 | Cc1cccc(Oc2ccc(C(=O)NS(C)(=O)=O)cc2Cl)c1 [Example 250, 3-chloro-4-(3-methylphenoxy)-N-(methylsulfonyl)benzamide]
31 | 1.2 | CS(=O)(=O)NC(=O)c1ccc(Oc2ccccc2)c(Cl)c1 [Example 252, 3-chloro-N-(methylsulfonyl)-4-phenoxybenzamide]
32 | 2.5 | CCOc1ccc(Oc2ccc(C(=O)NS(C)(=O)=O)cc2)cc1 [Example 253, 4-(4-ethoxyphenoxy)-N-(methylsulfonyl)benzamide]
33 | 7.5 | Cc1cccc(Oc2ccc(C(=O)NS(C)(=O)=O)cc2)c1 [Example 254, 4-(3-methylphenoxy)-N-(methylsulfonyl)benzamide]
34 | 1.4 | COc1cccc(Oc2ccc(C(=O)NS(C)(=O)=O)cc2Cl)c1 [Example 255, 3-chloro-4-(3-methoxyphenoxy)-N-(methylsulfonyl)benzamide]
35 | 2.8 | Cc1ccccc1Oc1ccc(C(=O)NS(C)(=O)=O)cc1Cl [Example 256, 3-chloro-4-(2-methylphenoxy)-N-(methylsulfonyl)benzamide]
36 | 1.1 | COc1ccc(Oc2ccc(C(=O)NS(C)(=O)=O)cc2Cl)cc1 [Example 257, 3-chloro-4-(4-methoxyphenoxy)-N-(methylsulfonyl)benzamide]
37 | 2.1 | CS(=O)(=O)NC(=O)c1ccc(Oc2cccc3ccccc23)c(Cl)c1 [Example 258, 3-chloro-N-(methylsulfonyl)-4-(1-naphthyloxy)benzamide]
38 | 1.1 | CS(=O)(=O)NC(=O)c1ccc(Oc2cccc(F)c2)c(Cl)c1 [Example 262, 3-chloro-4-(3-fluorophenoxy)-N-(methylsulfonyl)benzamide]
39 | 7 | CS(=O)(=O)NC(=O)c1ccc(Oc2cccc(C#N)c2)c(Cl)c1 [Example 264, 3-chloro-4-(3-cyanophenoxy)-N-(methylsulfonyl)benzamide]
40 | 4.8 | CCOc1ccc(Oc2ccc(C(=O)NS(C)(=O)=O)cc2C#N)cc1 [Example 265, 3-cyano-4-(4-ethoxyphenoxy)-N-(methylsulfonyl)benzamide]
41 | 0.27 | CS(=O)(=O)NC(=O)c1ccc(Oc2cccc(C(F)(F)F)c2)c(Cl)c1 [Example 266, 3-chloro-N-(methylsulfonyl)-4-[3-(trifluoromethyl)phenoxy]benzamide]
42 | 5.3 | CS(=O)(=O)NC(=O)c1ccc(Oc2ccccc2-c2ccccc2)cc1 [Example 268, 4-(biphenyl-2-yloxy)-N-(methylsulfonyl)benzamide]
43 | 1.7 | CS(=O)(=O)NC(=O)c1ccc(Oc2ccc3ccccc3c2)c(C#N)c1 [Example 269, 3-cyano-N-(methylsulfonyl)-4-(2-naphthyloxy)benzamide]
44 | 3.7 | CS(=O)(=O)NC(=O)c1ccc(Oc2ccc(C#N)cc2)c(Cl)c1 [Example 270, 3-chloro-4-(4-cyanophenoxy)-N-(methylsulfonyl)benzamide]
45 | 0.71 | CS(=O)(=O)NC(=O)c1ccc(Oc2cccc(-c3ccccc3)c2)c(C#N)c1 [Example 272, 4-(biphenyl-3-yloxy)-3-cyano-N-(methylsulfonyl)benzamide]
46 | 5.6 | COc1cccc(Oc2ccc(C(=O)NS(C)(=O)=O)cc2C#N)c1 [Example 277, 3-cyano-4-(3-methoxyphenoxy)-N-(methylsulfonyl)benzamide]
47 | 6.6 | CS(=O)(=O)NC(=O)c1ccc(Oc2ccccc2C(F)(F)F)c(Cl)c1 [Example 278, 3-chloro-N-(methylsulfonyl)-4-[2-(trifluoromethyl)phenoxy]benzamide]
48 | 0.43 | CS(=O)(=O)NC(=O)c1ccc(Oc2ccc(-c3ccccc3)cc2)c(C#N)c1 [Example 280, 4-(biphenyl-4-yloxy)-3-cyano-N-(methylsulfonyl)benzamide]
49 | 4.3 | CCOc1cccc(Oc2ccc(C(=O)NS(C)(=O)=O)cc2C#N)c1 [Example 281, 3-cyano-4-(3-ethoxyphenoxy)-N-(methylsulfonyl)benzamide]
50 | 1.2 | CS(=O)(=O)NC(=O)c1ccc(Oc2ccccc2F)c(Cl)c1 [Example 282, 3-chloro-4-(2-fluorophenoxy)-N-(methylsulfonyl)benzamide]

— patent publication US8685977B2, “Chemical compounds” (Pfizer Limited, priority 2010, dated 2014)
